# From patent US7671054B1, “Reverse-turn mimetics and method relating thereto” (Choongwae Pharma Corporation, priority 2001, dated 2010)
# Tested on: TCF4/β-catenin transcription (TOPFlash) in SW480 cells
# Experiment: Reporter gene assay (TOPFlash luciferase)
# Type: cell-based
# Conditions: Homo sapiens, SW480, Table 4; Reporter gene assay as described in Example 6; read-out: IC50
# Summary of the method: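 SW480 cells transiently co-transfected with TOPFlash and pRL-null (4:1 µg) using Superfect, then reseeded at 3×10^4 cells/well and incubated overnight at 37 °C. Compound treatment lasted 24 h before luciferase read-out.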
row,Structure (SMILES),IC50
1,C=CCN1CC(=O)N2[C@@H](Cc3ccc(OP(=O)(O)O)cc3)C(=O)N(Cc3ccc(Cl)c(N(C)C)c3)C[C@@H]2N1C(=O)NCc1ccccc1 [Compound 161],1.8 ± 0.2 µM
2,CN1CC(=O)N2[C@@H](CN(Cc3cccc4ccccc34)C(=O)[C@H]2c2ccc(O)cc2)N1C(=O)NCc1ccccc1 [Compound 36],12.5 µM
3,CN1CC(=O)N2[C@@H](Cc3ccc(O)cc3)C(=O)N(Cc3cccc4[nH]ncc34)C[C@@H]2N1C(=O)NCc1ccccc1 [Compound 70],8.8 ± 1.9 µM
4,C[C@H](c1ccc(F)c(N(C)C)c1)N1C[C@H]2N(C(=O)CN(C)N2C(=O)NCc2ccccc2)[C@@H](Cc2ccc(O)cc2)C1=O [Compound 59],5.3 ± 1.3 µM
5,C[C@H](c1cccc(N(C)C)c1)N1C[C@H]2N(C(=O)CN(C)N2C(=O)NCc2ccccc2)[C@@H](Cc2ccc(O)cc2)C1=O [Compound 61],25.8 µM
6,CN1CC(=O)N2[C@@H](Cc3ccc(O)cc3)C(=O)N(Cc3ccc(F)cc3C(F)(F)F)C[C@@H]2N1C(=O)NCc1ccccc1 [Compound 44],1.3 µM
7,CN1CC(=O)N2C(CN(Cc3ccc(F)cc3F)C(=O)[C@@H]2Cc2ccc(O)cc2)N1C(=O)NCc1ccccc1 (some centres unmarked) [Compound 13],6.4 µM
8,Cc1ccc(CC2C(=O)N(CCc3ccccc3)CC3N2C(=O)CN(C)N3C(=O)Nc2ccc(C(F)(F)F)cc2)cc1 (centres unmarked) [Compound 2],12.6 µM
9,CCN(CC)c1cccc(CN2C[C@H]3N(C(=O)CN(C)N3C(=O)NCc3ccccc3)[C@@H](Cc3ccc(O)cc3)C2=O)c1 [Compound 47],3.5 µM
10,CN1CC(=O)N2[C@@H](Cc3ccc(O)cc3)C(=O)N(Cc3cccc4nccnc34)C[C@@H]2N1C(=O)NCc1ccccc1 [Compound 34],4.4 µM

# The remaining lines, values ahead:
row,IC50,Structure (SMILES)
1,4.5 ± 0.9 µM,C#CCN1CC(=O)N2[C@@H](Cc3ccc(O)cc3)C(=O)N(Cc3ccc(C)c(N4CCOCC4)c3)C[C@@H]2N1C(=O)NCc1ccccc1 [Compound 134]
2,12.6 ± 1.2 µM,CN1CC(=O)N2[C@@H](Cc3ccc(O)cc3)C(=O)N(Cc3ccccc3N3CCOCC3)C[C@@H]2N1C(=O)NCc1ccccc1 [Compound 97]
3,0.9 ± 0.1 µM,C=CCN1CC(=O)N2[C@@H](Cc3ccc(O)cc3)C(=O)N(Cc3cccc4scnc34)C[C@@H]2N1C(=O)NCc1ccc(Cl)c(Cl)c1 [Compound 210]
4,14.4 ± 2.2 µM,CN1CC(=O)N2[C@@H](Cc3ccc(O)cc3)C(=O)N(Cc3cccc4c3cnn4CCN3CCOCC3)C[C@@H]2N1C(=O)NCc1ccccc1 [Compound 98]
5,3.5 ± 0.7 µM,C=CCN1CC(=O)N2[C@@H](Cc3ccc(O)cc3)C(=O)N(Cc3ccc(C)c(N4CCOCC4)c3)C[C@@H]2N1C(=O)NCc1ccccc1 [Compound 133]
6,1.2 ± 0.1 µM,C=CCN1CC(=O)N2[C@@H](CN([C@H](C)c3ccccc3)C(=O)[C@@H]2Cc2ccc(O)cc2)N1C(=O)NCc1ccccc1 [Compound 184]
7,1.3 ± 0.3 µM,"C=CCN1CC(=O)N2C(CN(Cc3cccc(N(C)C)c3)C(=O)[C@@H]2Cc2ccc(O)cc2)N1C(=O)NCc1ccccc1 (single isomer, unassigned) [Compound 192]"
8,2.5 ± 0.5 µM,C=CCN1CC(=O)N2[C@@H](Cc3ccc(O)cc3)C(=O)N(Cc3cccc(NC)c3)C[C@@H]2N1C(=O)NCc1ccccc1 [Compound 193]
9,3.6 ± 0.3 µM,C=CCN1CC(=O)N2[C@@H](Cc3ccc(O)c(F)c3)C(=O)N(Cc3ccc(F)cc3)C[C@@H]2N1C(=O)NCc1ccccc1 [Compound 186]
10,1.2 ± 0.1 µM,C=CCN1CC(=O)N2[C@@H](Cc3ccc(O)cc3)C(=O)N(Cc3ccc(F)c(F)c3)C[C@@H]2N1C(=O)NCc1ccccc1 [Compound 178]
11,2.7 ± 0.3 µM,C#CCN1CC(=O)N2[C@@H](Cc3ccc(O)cc3)C(=O)N(Cc3ccc(Cl)c(N4CCOCC4)c3)C[C@@H]2N1C(=O)NCc1ccccc1 [Compound 140]
12,6.1 ± 0.4 µM,CN1CC(=O)N2[C@@H](Cc3ccc(O)cc3)C(=O)N(Cc3cccc(OCCN4CCOCC4)c3)C[C@@H]2N1C(=O)NCc1ccccc1 [Compound 130]
13,2.4 ± 0.7 µM,C#CCN1CC(=O)N2[C@@H](Cc3ccc(O)cc3)C(=O)N(Cc3ccc4c(c3)OCCO4)C[C@@H]2N1C(=O)NCc1ccccc1 [Compound 135]
